According to patent publication US9518060B2, “Substituted pyrrolo[3,4-c]pyrazoles as PKC kinase inhibitors” (PFIZER INC., priority 2007, dated 2016):

Molecular target: Protein Kinase C beta 2 (PKCβII) (Homo sapiens (Human), UniProt P05771)
Experiment: PKCβII coupled spectrophotometric kinase assay (PK/LDH, NADH absorbance at 340 nm)
Assay type: biochemical
Details: apparent Ki, ATP competitive inhibition model (Morrison equation); 0.1 mM ATP, 5 nM PKC, 30° C.; read-out: Ki app
In short: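 PK/LDH-coupled ADP detection (NADH loss at 340 nm), 20 min at 30° C, pH 7.4; 5 nM PKCβII, 0.15 mM pseudosubstrate peptide, 0.1 mM ATP, with CaCl2, PS and PMA activators, 7.5% DMSO. Apparent Ki from initial velocities fitted to ATP-competitive Morrison model over 10,000–0.169 nM inhibitor.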

Chain of Protein Kinase C beta 2 (PKCβII) (P05771 other isoform, or with tags, fused parts or gaps): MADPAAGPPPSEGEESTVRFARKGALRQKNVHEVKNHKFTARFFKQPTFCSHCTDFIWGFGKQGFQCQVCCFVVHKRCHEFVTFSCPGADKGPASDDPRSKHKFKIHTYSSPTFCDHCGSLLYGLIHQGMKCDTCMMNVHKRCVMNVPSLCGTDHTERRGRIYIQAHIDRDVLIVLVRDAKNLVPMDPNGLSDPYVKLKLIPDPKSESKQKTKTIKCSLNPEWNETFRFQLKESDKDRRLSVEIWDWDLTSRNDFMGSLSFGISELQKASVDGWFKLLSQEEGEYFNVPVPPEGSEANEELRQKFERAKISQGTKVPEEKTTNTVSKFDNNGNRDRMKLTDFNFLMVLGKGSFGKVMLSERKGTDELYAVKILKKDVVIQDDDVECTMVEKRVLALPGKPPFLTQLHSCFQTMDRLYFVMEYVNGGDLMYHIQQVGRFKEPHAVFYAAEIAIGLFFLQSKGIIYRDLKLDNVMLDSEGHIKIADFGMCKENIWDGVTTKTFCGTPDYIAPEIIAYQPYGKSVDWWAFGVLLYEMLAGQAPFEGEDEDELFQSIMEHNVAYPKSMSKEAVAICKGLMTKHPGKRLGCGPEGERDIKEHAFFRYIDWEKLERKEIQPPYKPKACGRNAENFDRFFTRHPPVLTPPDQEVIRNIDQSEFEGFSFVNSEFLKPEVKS

Ki [nM] | SMILES
39.8 | Cc1ncc(F)c(Nc2n[nH]c3c2CN(C(=O)N2C[C@@H]4CCCN4C[C@@H]2C)C3(C)C)n1 [Example H1, N-(5-fluoro-2-methylpyrimidin-4-yl)-6,6-dimethyl-5-{[(3S,8aS)-3-methylhexahydropyrrolo[1,2-a]pyrazin-2(1H)-yl]carbonyl}-1,4,5,6-tetrahydropyrrolo[3,4-c]pyrazol-3-amine]
0.165 | C[C@@H]1CN(C(=O)N2Cc3c(Nc4nc(OCC(F)(F)F)ncc4F)n[nH]c3C2(C)C)[C@@H](C)CN1C [Example K7, N-[5-fluoro-2-(2,2,2-trifluoroethoxy)pyrimidin-4-yl]-6,6-dimethyl-5-{[(2S,5R)-2,4,5-trimethylpiperazin-1-yl]carbonyl}-1,4,5,6-tetrahydropyrrolo[3,4-c]pyrazol-3-amine]
1.17 | Cc1ccc(F)c(Nc2n[nH]c3c2CN(C(=O)N2CC(C)(C)N(C)C[C@@H]2C)C3(C)C)n1 [Example J6, N-(3-fluoro-6-methylpyridin-2-yl)-6,6-dimethyl-5-{[(2S)-2,4,5,5-tetramethylpiperazin-1-yl]carbonyl}-1,4,5,6-tetrahydropyrrolo[3,4-c]pyrazol-3-amine]
18.1 | Cc1ncc(F)c(Nc2n[nH]c3c2CN(C(=O)N2C[C@@H](C)N(C)C[C@@H]2C)C3(C)C)n1 [Example H2, N-(5-fluoro-2-methylpyrimidin-4-yl)-6,6-dimethyl-5-{[(2S,5R)-2,4,5-trimethylpiperazin-1-yl]carbonyl}-1,4,5,6-tetrahydropyrrolo[3,4-c]pyrazol-3-amine]
2.1 | COCc1ncc(F)c(Nc2n[nH]c3c2CN(C(=O)N2CC(C)(C)N(C)C[C@@H]2C)C3(C)C)n1 [Example J9, N-[5-fluoro-2-(methoxymethyl)pyrimidin-4-yl]-6,6-dimethyl-5-{[(2S)-2,4,5,5-tetramethylpiperazin-1-yl]carbonyl}-1,4,5,6-tetrahydropyrrolo[3,4-c]pyrazol-3-amine]
1.01 | Cc1ncc(F)c(Nc2n[nH]c3c2CN(C(=O)N2CC4(CCCC4)N(C)C[C@@H]2C)C3(C)C)n1 [Example A10, 5-{[(8S)-6,8-dimethyl-6,9-diazaspiro[4.5]dec-9-yl]carbonyl}-N-(5-fluoro-2-methylpyrimidin-4-yl)-6,6-dimethyl-1,4,5,6-tetrahydropyrrolo[3,4-c]pyrazol-3-amine]
3.67 | CC(C)c1ncc(F)c(Nc2n[nH]c3c2CN(C(=O)N2CC(C)(C)N(C)C[C@@H]2C)C3(C)C)n1 [Example I2, N-(5-fluoro-2-isopropylpyrimidin-4-yl)-6,6-dimethyl-5-{[(2S)-2,4,5,5-tetramethylpiperazin-1-yl]carbonyl}-1,4,5,6-tetrahydropyrrolo[3,4-c]pyrazol-3-amine]
< 10 | CCOc1ncc(F)c(Nc2n[nH]c3c2CN(C(=O)N2C[C@@H](C)N(C4CCOCC4)C[C@@H]2C)C3(C)C)n1 [Example K21, 5-{[(2S,5R)-2,5-dimethyl-4-(tetrahydro-2H-pyran-4-yl)piperazin-1-yl]carbonyl}-N-(2-ethoxy-5-fluoropyrimidin-4-yl)-6,6-dimethyl-1,4,5,6-tetrahydropyrrolo[3,4-c]pyrazol-3-amine]
